In ChEMBL document CHEMBL1275494, “Microbiological and genotypic analysis of methicillin-resistant Staphylococcus aureus bacteremia” (2008):
Active and inactive are the calls of the source. No cut-off for these calls is given here.

Assays:
[1] = test system: Staphylococcus aureus; assay: Antibacterial activity against SCCmec type 2 genotype-positive and methicillin-resistant Staphylococcus aureus by CLSI method; type: functional, organism-based
[2] = test system: Staphylococcus aureus; assay: Antibacterial activity against SCCmec type 4 genotype-positive and methicillin-resistant Staphylococcus aureus by CLSI method; type: functional, organism-based

Row | Compound | Activity [1] | Activity [2]
1 | CCC[C@@H]1C[C@@H](C(=O)N[C@@H]([C@H]2O[C@H](SC)[C@H](O)[C@@H](O)[C@H]2O)[C@H](C)Cl)N(C)C1 | inactive | Active
2 | CN(C)[C@@H]1C(O)=C(C(N)=O)C(=O)[C@@]2(O)C(O)=C3C(=O)c4c(O)cccc4[C@@](C)(O)[C@H]3C[C@@H]12 |  | inactive
3 | C[C@H]1COc2c(N3CCN(C)CC3)c(F)cc3c(=O)c(C(=O)O)cn1c23 | inactive | Active
